Test results: patent US12172983B2, “EGFR inhibitors” (Blueprint Medicines Corporation, priority 2019, dated 2024)
Read-outs that look alike come from different tables or passages of the source.

Experiments:
[1] = molecular target: T1, EGFR (L858R T790M C797S) (Homo sapiens, UniProt P00533, C797S/L858R/T790M); experiment: Biochemical EGFR inhibition assay (Caliper mobility shift), EGFR LRTMCS mutant; settings: inhibitory activity against EGFR LRTMCS mutant; apparent IC50; read-out: Ext Enz LRTMCS
T1 construct: purchased SignalChem E10-122VG
T1 sequence (P00533 25-1210 T790M/C797S/L858R): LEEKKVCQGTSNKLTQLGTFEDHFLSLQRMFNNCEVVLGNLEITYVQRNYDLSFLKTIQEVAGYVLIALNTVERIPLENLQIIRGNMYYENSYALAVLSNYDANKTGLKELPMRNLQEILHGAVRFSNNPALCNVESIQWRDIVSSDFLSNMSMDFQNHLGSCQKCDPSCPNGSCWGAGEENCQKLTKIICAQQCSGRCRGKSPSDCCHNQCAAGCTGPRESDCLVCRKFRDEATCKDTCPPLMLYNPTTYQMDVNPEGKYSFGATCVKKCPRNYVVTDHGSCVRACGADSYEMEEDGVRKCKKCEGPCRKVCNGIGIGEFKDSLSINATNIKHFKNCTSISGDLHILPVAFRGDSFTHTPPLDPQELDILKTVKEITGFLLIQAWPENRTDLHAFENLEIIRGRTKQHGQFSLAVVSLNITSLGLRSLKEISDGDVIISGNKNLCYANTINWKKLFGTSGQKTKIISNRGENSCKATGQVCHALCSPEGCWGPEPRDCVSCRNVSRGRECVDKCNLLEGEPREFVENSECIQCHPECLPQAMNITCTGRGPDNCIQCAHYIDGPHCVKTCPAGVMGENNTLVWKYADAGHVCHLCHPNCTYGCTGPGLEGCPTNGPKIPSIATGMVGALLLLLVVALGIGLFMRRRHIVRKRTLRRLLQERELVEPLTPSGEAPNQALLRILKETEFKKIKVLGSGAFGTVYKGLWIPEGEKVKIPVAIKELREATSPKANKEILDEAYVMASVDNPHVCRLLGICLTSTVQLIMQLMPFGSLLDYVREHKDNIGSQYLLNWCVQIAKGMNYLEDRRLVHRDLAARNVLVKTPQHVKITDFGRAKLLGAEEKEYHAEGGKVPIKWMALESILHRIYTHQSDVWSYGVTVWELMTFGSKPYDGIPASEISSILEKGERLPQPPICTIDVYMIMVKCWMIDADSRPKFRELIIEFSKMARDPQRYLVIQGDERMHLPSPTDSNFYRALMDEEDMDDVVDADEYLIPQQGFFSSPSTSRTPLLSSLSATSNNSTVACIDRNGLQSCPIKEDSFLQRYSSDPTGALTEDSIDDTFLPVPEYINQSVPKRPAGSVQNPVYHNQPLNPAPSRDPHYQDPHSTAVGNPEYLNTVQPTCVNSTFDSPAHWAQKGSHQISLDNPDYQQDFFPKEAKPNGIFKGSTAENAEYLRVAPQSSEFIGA
Protocol: Reactions proceeded until between 10% to 20% total peptides were phosphorylated at room temperature (25° C.) and were terminated with 35 mM 2,2′,2″,2′″-(ethane-1,2-diyldinitrilo)tetraacetic acid (EDTA). Product was detected using the Caliper mobility shift detection method where the phosphorylated peptide (product) and substrate were electrophoretically separated and measured. Percent activity was plotted against log concentration of compound and points to generate an apparent IC50.

[2] = test system: phosphorylation of EGFR (Tyr1068) in NCI-H1975 cell line that harbors the EGFR L858R T790M mutations; experiment: NCI-H1975 pEGFR AlphaLISA assay; type: cell-based; settings: 4-5 hours incubation, read-out: Ext pEGFR H1975
Protocol: Inhibitory effects of the compounds of the disclosure were evaluated in cellular assays that measure level of intracellular phosphorylation of EGFR in NCI-H1975 cell line that harbors the EGFR L858R T790M mutations (ATCC, CRL-5908) using AlphaLISA sureFire ultra p-EGFR (Tyr1068) assay kit (PerkinElmer, ALSU-PEGFR-A50K). The NCI-H1975 cells were seeded at 12.5K/well in 22 μL into 384 well opti plate (PerkinElmer, 6007299) and adhering overnight at 37 C/5% CO2. On the next day, the test compounds and DMSO control were added into H1975 cell plate followed by incubation at 37 C/5% CO2 for 4-5 hours. The cells were then spin down in the 384-well plate and lysed with 10 μL of 1×AlphaLISA lysis buffer followed by shaking at 600 rpm for 10 minutes at room temperature. After that, 5 μL of an acceptor bead mix was added to each well followed by incubation at room temperature for 1.5-2 h in dark. Then 5 μL of a donor bead mix was added to each well followed by overnight incubation at room temperature in dark. On the next day, the plate was read at a compatible plate reader to obtain pEGFR signal. Percent of pEGFR inhibition was plotted against log concentration of compounds to generate IC50 values.

[3] = Homo sapiens, NCI-H1975, inhibition of phosphorylation of mutant EGFR in NCI-H1975 cells
[4] = inhibition of phosphorylation of mutant EGFR in NCI-H1975 cells

Row | IC50 [1] [nM] | IC50 [2, 3] [nM] | IC50 [2, 4] [nM] | Compound
1 | ≤ 15 | 20.1 to 30 | – | CC(C)c1ccc(N2CC(CS(C)(=O)=O)C2)c2cnc(Nc3ccnc(N4CC[C@@H](F)[C@H](O)C4)n3)cc12 (single isomer, unassigned) [Compound 24, (3S,4S)-4-fluoro-1-[4-({8-[3-(methanesulfonylmethyl)azetidin-1-yl]-5-(propan-2-yl)isoquinolin-3-yl}amino)pyrimidin-2-yl]piperidin-3-ol or (3R,4R)-4-fluoro-1-[4-({8-[3-(methanesulfonylmethyl)azetidin-1-yl]-5-(propan-2-yl)isoquinolin-3-yl}amino)pyrimidin-2-yl]piperidin-3-ol]
2 | ≤ 15 | 30.1 to 50 | – | C[C@@H]1[C@@H](CS(C)(=O)=O)CN1c1cccc2cc(Nc3ccnc(N4C[C@@H](F)[C@@H](O)[C@](C)(F)C4)n3)ncc12 (single isomer, unassigned) [Compound 35, (3R,4R,5R)-3,5-difluoro-1-[4-({8-[(2R,3S)-3-(methanesulfonylmethyl)-2-methylazetidin-1-yl]isoquinolin-3-yl}amino)pyrimidin-2-yl]-3-methylpiperidin-4-ol or (3S,4S,5S)-3,5-difluoro-1-[4-({8-[(2R,3S)-3-(methanesulfonylmethyl)-2-methylazetidin-1-yl]isoquinolin-3-yl}amino)pyrimidin-2-yl]-3-methylpiperidin-4-ol]
3 | 30.1 to 100 | 20.1 to 30 | – | CC(C)c1cnc(N2CC(CS(=O)(=O)C(F)(F)F)C2)c2cnc(Nc3ccnc(N4CC[C@@H](O)[C@@](C)(F)C4)n3)cc12 (single isomer, unassigned) [Compound 237]
4 | ≤ 15 | 10.1 to 20 | – | CC1(C)CN(c2nccc(Nc3cc4cccc(N5CC(CS(C)(=O)=O)C5)c4cn3)n2)CC(F)(F)[C@@H]1O (single isomer, unassigned) [Compound 34, (4R)-3,3-difluoro-1-[4-({8-[3-(methanesulfonylmethyl)azetidin-1-yl]isoquinolin-3-yl}amino)pyrimidin-2-yl]-5,5-dimethylpiperidin-4-ol or (4S)-3,3-difluoro-1-[4-({8-[3-(methanesulfonylmethyl)azetidin-1-yl]isoquinolin-3-yl}amino)pyrimidin-2-yl]-5,5-dimethylpiperidin-4-ol]
5 | – | – | 10.1 to 20 | CC(C)c1ccc(N2C[C@H](CS(C)(=O)=O)[C@H]2C)c2cnc(Nc3ccnc(N4CC[C@H](O)[C@@](C)(F)C4)n3)cc12 (single isomer, unassigned) [Compound 120, (3R,4R)-3-fluoro-1-[4-({8-[(2R,3S)-3-(methanesulfonylmethyl)-2-methylazetidin-1-yl]-5-(propan-2-yl)isoquinolin-3-yl}amino)pyrimidin-2-yl]-3-methylpiperidin-4-ol or (3S,4S)-3-fluoro-1-[4-({8-[(2R,3S)-3-(methanesulfonylmethyl)-2-methylazetidin-1-yl]-5-(propan-2-yl)isoquinolin-3-yl}amino)pyrimidin-2-yl]-3-methylpiperidin-4-ol]
6 | – | 20.1 to 30 | – | CC(C)c1ccc(N2C[C@H](CS(C)(=O)=O)[C@H]2C)c2cnc(Nc3ccnc(N4CC[C@H](O)[C@@](C)(F)C4)n3)cc12 (single isomer, unassigned) [Compound 119, (3S,4S)-3-fluoro-1-[4-({8-[(2R,3S)-3-(methanesulfonylmethyl)-2-methylazetidin-1-yl]-5-(propan-2-yl)isoquinolin-3-yl}amino)pyrimidin-2-yl]-3-methylpiperidin-4-ol or (3R,4R)-3-fluoro-1-[4-({8-[(2R,3S)-3-(methanesulfonylmethyl)-2-methylazetidin-1-yl]-5-(propan-2-yl)isoquinolin-3-yl}amino)pyrimidin-2-yl]-3-methylpiperidin-4-ol]
7 | – | 30.1 to 50 | – | CC(C)c1ccc(N2CC(CS(C)(=O)=O)C2)c2cnc(Nc3ccnc(N4CC[C@H](O)[C@@](C)(F)C4)n3)cc12 (single isomer, unassigned) [Compound 61, (3S,4S)-3-fluoro-1-[4-({8-[3-(methanesulfonylmethyl)azetidin-1-yl]-5-(propan-2-yl)isoquinolin-3-yl}amino)pyrimidin-2-yl]-3-methylpiperidin-4-ol or (3R,4R)-3-fluoro-1-[4-({8-[3-(methanesulfonylmethyl)azetidin-1-yl]-5-(propan-2-yl)isoquinolin-3-yl}amino)pyrimidin-2-yl]-3-methylpiperidin-4-ol]
8 | – | ≤ 10 | – | CC(C)c1cnc(N2CC(CS(C)(=O)=O)C2)c2cnc(Nc3ccnc(N4CC[C@@H](O)[C@@](C)(F)C4)n3)cc12 (single isomer, unassigned) [Compound 67]

The remaining lines, values behind:

Row | Compound | IC50 [1] [nM] | IC50 [2, 3] [nM] | IC50 [2, 4] [nM]
9 | CC(C)c1ccc(N2C[C@H](CS(C)(=O)=O)[C@H]2C)c2cnc(Nc3ccnc(N4CC[C@@H](OCCN(C)C)[C@@H](F)C4)n3)cc12 [Compound 254, N-{2-[(3S,4R)-4-[2-(dimethylamino)ethoxy]-3-fluoropiperidin-1-yl]pyrimidin-4-yl}-8-[(2R,3S)-3-(methanesulfonylmethyl)-2-methylazetidin-1-yl]-5-(propan-2-yl)isoquinolin-3-amine] | ≤ 15 | ≤ 10 | –
10 | CC(C)c1ccc(N2C[C@H](CS(C)(=O)=O)[C@H]2C)c2cnc(Nc3ccnc(N4CC[C@H](O)C[C@@H]4C)n3)cc12 (single isomer, unassigned) [Compound 47, (2S,4S)-1-[4-({8-[(2R,3S)-3-(methanesulfonylmethyl)-2-methylazetidin-1-yl]-5-(propan-2-yl)isoquinolin-3-yl}amino)pyrimidin-2-yl]-2-methylpiperidin-4-ol or (2R,4R)-1-[4-({8-[(2R,3S)-3-(methanesulfonylmethyl)-2-methylazetidin-1-yl]-5-(propan-2-yl)isoquinolin-3-yl}amino)pyrimidin-2-yl]-2-methylpiperidin-4-ol] | 15.1 to 20 | ≤ 10 | –
11 | CO[C@H]1CCN(c2nccc(Nc3cc4c(C(C)C)ccc(N5C[C@H](CS(C)(=O)=O)[C@H]5C)c4cn3)n2)C[C@H]1F [Compound 123, N-(2-((3R,4S)-3-fluoro-4-methoxypiperidin-1-yl)pyrimidin-4-yl)-5-isopropyl-8-((2R,3S)-2-methyl-3-((methylsulfonyl)methyl)azetidin-1-yl)isoquinolin-3-amine] | – | ≤ 10 | –
12 | CO[C@@H]1CCN(c2nccc(Nc3cc4c(C(C)C)ccc(N5C[C@H](CS(C)(=O)=O)[C@H]5C)c4cn3)n2)C[C@H]1F (single isomer, unassigned) [Compound 279, N-{2-[(3S,4S)-3-fluoro-4-methoxypiperidin-1-yl]pyrimidin-4-yl}-8-[(2R,3S)-3-(methanesulfonylmethyl)-2-methylazetidin-1-yl]-5-(propan-2-yl)isoquinolin-3-amine or N-{2-[(3R,4R)-3-fluoro-4-methoxypiperidin-1-yl]pyrimidin-4-yl}-8-[(2R,3S)-3-(methanesulfonylmethyl)-2-methylazetidin-1-yl]-5-(propan-2-yl)isoquinolin-3-amine] | – | – | 20.1 to 30
13 | CO[C@H]1CCN(c2nccc(Nc3cc4c(C(C)(C)N)ccc(N5C[C@H](CS(C)(=O)=O)[C@H]5C)c4cn3)n2)C[C@H]1F [Compound 312, 5-(2-aminopropan-2-yl)-N-(2-((3R,4S)-3-fluoro-4-methoxypiperidin-1-yl)pyrimidin-4-yl)-8-((2R,3S)-2-methyl-3-((methylsulfonyl)methyl)azetidin-1-yl)isoquinolin-3-amine] | ≤ 15 | – | –
14 | CO[C@@H]1CCN(c2nccc(Nc3cc4c(C(C)C)ccc(N5C[C@H](CS(C)(=O)=O)[C@H]5C)c4cn3)n2)C[C@H]1F (single isomer, unassigned) [Compound 278, N-{2-[(3R,4R)-3-fluoro-4-methoxypiperidin-1-yl]pyrimidin-4-yl}-8-[(2R,3S)-3-(methanesulfonylmethyl)-2-methylazetidin-1-yl]-5-(propan-2-yl)isoquinolin-3-amine or N-{2-[(3S,4S)-3-fluoro-4-methoxypiperidin-1-yl]pyrimidin-4-yl}-8-[(2R,3S)-3-(methanesulfonylmethyl)-2-methylazetidin-1-yl]-5-(propan-2-yl)isoquinolin-3-amine] | – | 20.1 to 30 | –
15 | CO[C@@H]1CCN(c2nccc(Nc3cc4c(C(C)C)ccc(N5C[C@H](CS(C)(=O)=O)[C@H]5C)c4cn3)n2)C[C@@H]1F [Compound 122, N-(2-((3S,4R)-3-fluoro-4-methoxypiperidin-1-yl)pyrimidin-4-yl)-5-isopropyl-8-((2R,3S)-2-methyl-3-((methylsulfonyl)methyl)azetidin-1-yl)isoquinolin-3-amine] | – | ≤ 10 | –
